Experimental findings from article PMC5703966, “Systemic clearance and brain distribution of carbazole-based cyanine compounds as Alzheimer’s disease drug candidates” (Scientific Reports, 2017) are described below.

Each structure is given as a SMILES string.

What all share (assay): OATP substrate identification, uptake in stably transfected HEK293 cells
For series [1], the target named is T1, OATP1A2 (Homo sapiens, UniProt P46721).
T1 sequence (P46721 1-670): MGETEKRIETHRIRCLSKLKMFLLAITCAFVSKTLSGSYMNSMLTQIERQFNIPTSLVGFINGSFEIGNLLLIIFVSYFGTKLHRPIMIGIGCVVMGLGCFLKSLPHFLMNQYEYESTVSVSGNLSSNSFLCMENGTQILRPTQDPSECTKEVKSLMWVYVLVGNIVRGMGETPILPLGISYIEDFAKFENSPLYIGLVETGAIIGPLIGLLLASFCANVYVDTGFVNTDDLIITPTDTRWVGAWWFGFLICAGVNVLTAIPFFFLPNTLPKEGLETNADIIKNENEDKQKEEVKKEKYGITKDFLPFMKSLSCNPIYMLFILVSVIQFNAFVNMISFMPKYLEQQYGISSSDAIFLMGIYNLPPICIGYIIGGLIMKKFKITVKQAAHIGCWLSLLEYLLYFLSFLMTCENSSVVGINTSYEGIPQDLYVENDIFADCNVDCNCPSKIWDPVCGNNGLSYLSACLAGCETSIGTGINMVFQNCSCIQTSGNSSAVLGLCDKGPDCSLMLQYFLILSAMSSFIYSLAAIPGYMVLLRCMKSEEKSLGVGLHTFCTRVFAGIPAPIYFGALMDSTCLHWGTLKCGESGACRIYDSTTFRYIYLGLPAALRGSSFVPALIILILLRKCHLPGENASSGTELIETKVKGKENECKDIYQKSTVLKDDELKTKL
The settings on record: 1 and 10 μM, 10 mins. On the procedure: (§1) Daily changes of medium were performed and on the second day after seeding using medium containing 10 mM sodium butyrate.
(§2) Stably transfected HEK cells and control vector-transfected HEK293 cells were first washed (3 × 1 mL) with prewarmed HBSS (pH 7.4) and then were incubated with 250 μL of HBSS containing compounds at concentrations of 1 and 10 μM. Cells were incubated for 10 mins at 37 °C for all experiments. After incubation, uptake was stopped by aspirating the incubation solution and washing each well 3 times with 200 μL of ice-old HBSS. The cells were lysed in 150 μL of 1 M NaOH for 30 mins, and then neutralized by adding equal volumes of 1 M HCl.
(§3) The following equations (3 and 4) were used to calculate the uptake rates (U, pmol/mg/min) and the OATP1B1, OATP1B3, OATP2B1 and OATP1A2 uptake ratio (UR):3 U=Clysate/P×T 4 UR=UOATP1B1/1B3/2B1/1A2/UHEK293−MOCK where C lysate is the compound concentration in cell lysates. P is the protein concentration in cell lysates. T is the incubation time. U OATP1B1/1B3/2B1/1A2 is the uptake rate obtained in HEK293 stably transfected OATP1B1, OATP1B3, OATP2B1 or OATP1A2 transportation. U HEK293-MOCK is the uptake rate obtained in control vector-transfected HEK293 transportation.

For series [2], the target named is T2, OATP1B1 (Homo sapiens, UniProt Q9Y6L6).
T2 sequence (Q9Y6L6 1-691): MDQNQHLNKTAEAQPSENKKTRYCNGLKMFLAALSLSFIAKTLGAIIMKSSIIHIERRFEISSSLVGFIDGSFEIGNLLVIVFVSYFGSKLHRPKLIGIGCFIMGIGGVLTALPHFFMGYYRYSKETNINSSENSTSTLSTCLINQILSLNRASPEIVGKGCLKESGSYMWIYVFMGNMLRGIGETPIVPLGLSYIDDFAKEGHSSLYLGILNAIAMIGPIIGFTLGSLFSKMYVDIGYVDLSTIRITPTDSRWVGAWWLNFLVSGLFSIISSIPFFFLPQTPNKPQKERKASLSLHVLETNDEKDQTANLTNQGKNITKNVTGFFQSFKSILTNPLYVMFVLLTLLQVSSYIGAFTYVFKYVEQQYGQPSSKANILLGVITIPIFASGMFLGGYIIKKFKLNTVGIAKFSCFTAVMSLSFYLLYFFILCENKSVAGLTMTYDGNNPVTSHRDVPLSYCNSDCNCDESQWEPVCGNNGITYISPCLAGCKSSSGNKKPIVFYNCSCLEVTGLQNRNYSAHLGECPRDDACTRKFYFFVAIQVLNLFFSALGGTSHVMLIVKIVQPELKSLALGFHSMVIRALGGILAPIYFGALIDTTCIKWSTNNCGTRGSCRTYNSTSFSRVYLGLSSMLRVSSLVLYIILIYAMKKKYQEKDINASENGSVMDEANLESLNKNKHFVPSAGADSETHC
Conditions: 1 and 10 μM, 10 mins. The procedure:
as §1, §2, §3

Series [3] concerns the target T3, OATP2B1 (Homo sapiens, UniProt O94956).
T3 sequence (O94956 1-709): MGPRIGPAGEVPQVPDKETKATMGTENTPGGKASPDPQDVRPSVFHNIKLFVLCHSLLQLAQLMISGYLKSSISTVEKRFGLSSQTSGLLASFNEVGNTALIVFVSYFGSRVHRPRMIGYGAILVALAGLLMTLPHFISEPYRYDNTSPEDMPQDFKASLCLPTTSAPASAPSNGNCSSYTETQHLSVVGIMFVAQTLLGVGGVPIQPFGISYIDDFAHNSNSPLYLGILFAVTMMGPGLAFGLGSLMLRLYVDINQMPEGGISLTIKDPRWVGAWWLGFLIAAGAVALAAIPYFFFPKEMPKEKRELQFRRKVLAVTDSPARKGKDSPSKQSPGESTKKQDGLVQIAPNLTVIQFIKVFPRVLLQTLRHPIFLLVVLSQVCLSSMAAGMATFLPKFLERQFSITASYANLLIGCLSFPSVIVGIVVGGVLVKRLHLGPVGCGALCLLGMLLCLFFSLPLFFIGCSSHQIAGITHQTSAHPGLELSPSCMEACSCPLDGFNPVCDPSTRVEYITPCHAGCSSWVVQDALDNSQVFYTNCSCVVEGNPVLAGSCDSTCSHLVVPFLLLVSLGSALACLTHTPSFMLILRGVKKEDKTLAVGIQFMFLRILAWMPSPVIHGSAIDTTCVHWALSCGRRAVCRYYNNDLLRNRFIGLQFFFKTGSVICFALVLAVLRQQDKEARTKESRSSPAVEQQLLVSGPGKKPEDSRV
Conditions: for uptake in cells transfected with OATP2B1 versus WT cells: 1 and 10 μM, 10 mins. The procedure:
as §1, §2, §3

Consider `COCCOCCn1c2ccccc2c2cc(/C=C/c3cc[n+](C)c4ccccc34)ccc21.[I-]` [SLM, (E)-4-(2-(9-(2-(2-methoxyethoxy)ethyl)-9H-carbazol-3-yl)-vinyl)-1-methyl-quinolin-1-iumiodide], for which the “uptake by OATP1A2 transfected HEK293 versus WT cells” value in series [1] was “no significant differences”. Moreover, the “uptake by OATP1B1 transfected HEK293 versus WT cells” value in series [2] is listed as “no significant differences”. Further, in series [3], the OATP2B1 substrate identification entry is recorded as “substrates” and the “uptake in cells transfected with OATP2B1 versus WT cells” value is recorded as “doubled”.
`COCCOCCn1c2ccccc2c2cc(/C=C/c3cc[n+](CCO)c4ccccc34)ccc21` [SLOH, (E)-1-(2-hydroxyethyl)-4-(2-(9-(2-(2-metho-xyethoxy)-ethyl)-9H-carbazol-3-yl)vinyl) quinolin-1-ium chloride]: the “uptake by OATP1A2 transfected HEK293 versus WT cells” value in series [1] is given as “no significant differences”. In addition, in series [2], the “uptake by OATP1B1 transfected HEK293 versus WT cells” value is “no significant differences”. Besides, in series [3], the OATP2B1 substrate identification entry is reported as “substrates” and the “uptake in cells transfected with OATP2B1 versus WT cells” value is “doubled”.
